According to patent US7404962B1, “Combination kit used in the treatment of malaria” (Nicholas Piramal India Limited, priority 2000, dated 2008):
Where two headings read alike, the source gives them in different places.

Experiments:
[1] = Methemoglobin toxicity study in healthy human volunteers; format: in vivo
Procedure: 3-[1-[[4-[(6-methoxy-8-quinolinyl)amino]pentyl]amino]ethylidene]-dihydro-2(3H)furanone (I) was evaluated vis-à-vis primaquine for toxicity related to methemoglobin formation in human.
The methemoglobin toxicity of compound I was evaluated via-à-vis that of primaquine in normal human volunteers.

[2] = literature; cited from earlier work
[3] = literature, cited from earlier work
[4] = tested on: P. vivax; assay: Clinical evaluation of the combination kit in patients, one year surveillance study; format: in vivo, human; details: compound I 25 mg vs primaquine 15 mg, each with chloroquine
Procedure: The efficacy of the combination kit of the present invention, containing compound I (25 mg) was clinically evaluated and compared with primaquine (15 mg) used in combination with chloroquine in a group of patients over a one year surveillance study.

[5] = tested on: anti-oxidant defense enzymes; details: literature; cited from earlier work
[6] = tested on: P. cynomolgi; assay: Radical curative activity against P. cynomolgi in rhesus monkeys; format: in vivo
Procedure: The radical curative anti-malarial activity and toxicity of the compound I was evaluated and compared with that caused by primaquine.
Combination regimen of chloroquine and 3-[1-[[4-[(6-methoxy-8-quinolinyl)amino]pentyl]amino]ethylidene]-dihydro-2(3H)furanone(I) tested against P. cynomolgi in rhesus monkeys.
The therapeutic effect of the combination regimen consisting of chloroquine and 3-[1-[[4-[(6-methoxy-8-quinolinyl)amino]pentyl]amino]-ethylidene]-4,5-dihydro-2(3H)furanone (I) was tested against P. cynomolgi in rhesus monkeys. 3-[1-[[4-[(6-methoxy-8-quinolinyl)-amino]pentyl]amino]ethylidene]-dihydro-2(3H)furanone(I) was administered in the dose level of 4.00 mg/kg (to 3 monkeys), 3.00 mg/kg (to 3 monkeys), 2.50 mg/kg (to 4 monkeys), 2.00 mg/kg (to 3 monkeys) and 1.25 mg/kg (to 9 monkeys) for 7 days. Chloroquine was administered as a companion drug at 5 mg/kg (base) dose. Minimum curative dose of compound I was found 1.25 mg/kg in 9 monkeys.

Question: For `COc1cc(NC(C)CCCN)c2ncccc2c1` (stereo not shown) [primaquine, reference compound], which “methemoglobin level after dosing” value ([1]; healthy human volunteers, 15 mg daily for 7 days) is on record?
Answer: 16.23%

Question: And the “methemoglobin level before dosing” value ([1]; healthy human volunteers, starting level)?
Answer: 3.97%

Question: Which “methemoglobin formation / toxicity versus primaquine” value [2] does the source give for `COc1cc(C)c2c(Oc3cccc(C(F)(F)F)c3)c(OC)cc(NC(C)CCCN)c2n1` (stereo not shown) [tafenoquine, reference compound] here?
Answer: almost three times more than that of primaquine

Question: What about the “anti-relapse activity versus primaquine” value [3] of the same compound?
Answer: more effective than primaquine

Question: What does the source list for `COc1cc(NC(C)CCCN/C(C)=C2/CCOC2=O)c2ncccc2c1` (stereo not shown) [compound I, 3-[1-[[4-[(6-methoxy-8-quinolinyl)amino]pentyl]amino]ethylidene]-dihydro-2(3H)-furanone]?
Answer: radical curative activity versus primaquine [4]: as effective as primaquine; methemoglobin formation / toxicity versus primaquine [2]: less methemoglobin formation; toxicity versus primaquine [2]: safer and less toxic; anti-relapse activity versus primaquine [3]: comparable to Primaquine; anti-relapse activity versus primaquine ([3]; listed as compound of formula (I)): comparable to primaquine; methemoglobin level before dosing ([1]; human, in vivo): 2.29%; effect on anti-oxidant defense enzymes versus primaquine [5]: less effect on anti-oxidant defense enzymes than primaquine; curative effect at doses higher than 1.25 mg/kg ([6]; 2.0, 2.50, 3.00 and 4.00 mg/kg (base) for 7 days, chloroquine 5 mg/kg (base)): curative; Minimum curative dose ([6]; 9 rhesus monkeys, 7 days, chloroquine companion drug at 5 mg/kg (base)): 1.25 mg/kg; blood smears after stopping the treatment ([6]; all monkeys observed over a period of 100 days): remained negative; curative ([6]; rhesus monkeys, 7 days, dose range 1.25 mg/kb to 4 mg/kg): 100%; relapse after stopping the treatment ([6]; rhesus monkeys, up to 100 days after stopping the treatment): no relapse observed
